Results: US20260138959A1, “QUINAZOLINE DERIVATIVE COMPOUND AND USE THEREOF” (VORONOI INC., priority 2021, published 2026)
Read-outs that look alike come from different tables or passages of the source.

Columns and labels:
c-KIT V560G/D816V = assay: Proliferation inhibitory activity on Ba/F3 cell (CellTiter-Glo, 72 hours), c-KIT V560G/D816V; format: cell-based; details: read-out: Cell (nM) c-KIT V560G/D816V (GI50 class)
Method: (§1) Ba/F3-TEL-PDGFRα(WT), Ba/F3-TEL-PDGFβ(WT), Ba/F3-c-KIT(D816V) (Kyinno, #KC-0138), c-KIT V560G/D816V, c-KIT D814Y were seeded at 3×10^3/100 μl/well in a clear bottom white 96-well plate. A culture solution containing compounds of 12 concentrations (0.00001-2 mM) serially diluted in 3 folds and the DMSO control group was added at 0.5 μl/well each to a final concentration of 0.00005-10 μM, and then incubated in a CO2 incubator at 37° C. for 72 hours. After 72 hours, the plate treated with the compound was taken out, CellTiter-Glo® Assay (Promega) solution was treated with 100 μl/well, followed by mixing well. After mixing well for about 10 minutes at room temperature, […] was measured using a microplate reader. The data were presented as percentages in proportion to treated cells based on the vehicle, GI50 (nM) values were calculated using GraphPad Prism 8.3.0 (GraphPad software Inc., San Diego).
(§2) The inhibitory activities of Ba/F3 expressing PDGFR-α, PDGFR-β, c-KIT(D816V), c-KIT V560G/D816V, and c-KIT D814Y measured as described above were measured and shown in Table 7 below (A: GI50≤200 nM; B: 200 nM<GI50≤500 nM; C: GI50>500 nM).

Ba/F3-c-KIT(D816V) = assay: Proliferation inhibitory activity on Ba/F3 cell (CellTiter-Glo, 72 hours), c-KIT(D816V); format: cell-based
Method: as §1, §2

[1] = Mus musculus, BaF3, c-KIT V560G/D816V cells
[2] = Mus musculus, BaF3, read-out: Ba/F3 (nM) c-KIT (D816V) (GI50 class)

Compound | GI50 (c-KIT V560G/D816V; [1]) [nM] | GI50 (Ba/F3-c-KIT(D816V); [2]) [nM] | GI50 (c-KIT V560G/D816V; c-KIT V560G/D816V cells) [nM] | GI50 (Ba/F3-c-KIT(D816V); read-out: Ba/F3 (nM) c-KIT (D816V) (GI50 class)) [nM]
COc1cc2c(-c3ccc(NC(=O)Cc4ccc(C(F)(F)F)cc4)cc3)ncnc2cc1OCc1cccnc1 [Example 29, N-(4-(6-methoxy-7-(pyridin-3-ylmethoxy)quinazolin-4-yl)phenyl)-2-(4-(trifluoromethyl)phenyl)acetamide] | ≤ 200 | ≤ 200 | – | –
COc1cc2c(-c3ccc(NC(=O)Cc4ccc(C(F)(F)F)cc4)cc3)ncnc2cc1OCCCN1CCN2CCCC2C1 (centres unmarked) [Example 33, N-(4-(7-(3-(hexahydropyrrolo[1,2-a]pyrazin-2(1H)-yl)propoxy)-6-methoxyquinazolin-4-yl)phenyl)-2-(4-(trifluoromethyl)phenyl)acetamide] | ≤ 200 | ≤ 200 | – | –
COc1cc2c(-c3ccc(NC(=O)Cc4ccc(C(F)(F)F)cc4)cc3)ncnc2cc1OCCCN1CCn2c(nnc2C(F)(F)F)C1 [Example 34, N-(4-(6-methoxy-7-(3-(3-(trifluoromethyl)-5,6-dihydro-[1,2,4]triazolo[4,3-a]pyrazin-7(8H)-yl)propoxy)quinazolin-4-yl)phenyl)-2-(4-(trifluoromethyl)phenyl)acetamide] | ≤ 200 | ≤ 200 | – | –
COc1cc2c(-c3ccc(NC(=O)Cc4ccc(C(F)(F)F)cc4)cc3)ncnc2cc1OC[C@@H]1CCN(C(=O)OC(C)(C)C)C1 [Example 35, tert-butyl (R)-3-(((6-methoxy-4-(4-(2-(4-(trifluoromethyl)phenyl)acetamido)phenyl)quinazolin-7-yl)oxy)methyl)pyrrolidin-1-carboxylate] | > 500 | ≤ 200 | – | –
COc1cc2c(-c3ccc(NC(=O)Cc4ccc(C(F)(F)F)cc4)cc3)ncnc2cc1OC[C@H]1CCN(C(=O)OC(C)(C)C)C1 [Example 36, tert-butyl (S)-3-(((6-methoxy-4-(4-(2-(4-(trifluoromethyl)phenyl)acetamido)phenyl)quinazolin-7-yl)oxy)methyl)pyrrolidin-1-carboxylate] | > 500 | ≤ 200 | – | –
COc1cc2c(-c3ccc(NC(=O)Cc4ccc(C(F)(F)F)cc4)cc3)ncnc2cc1OC[C@H]1CCNC1 [Example 39, (S)-N-(4-(6-methoxy-7-(pyrrolidin-3-ylmethoxy)quinazolin-4-yl)phenyl)-2-(4-(trifluoromethyl)phenyl)acetamide] | 200 to 500 | ≤ 200 | – | –
CCN1CC[C@H](COc2cc3ncnc(-c4ccc(NC(=O)Cc5ccc(C(F)(F)F)cc5)cc4)c3cc2OC)C1 [Example 41, (S)-N-(4-(7-((1-ethylpyrrolidin-3-yl)methoxy)-6-methoxyquinazolin-4-yl)phenyl)-2-(4-(trifluoromethyl)phenyl)acetamide] | ≤ 200 | ≤ 200 | – | –
COCCN1CCCC(COc2cc3ncnc(-c4ccc(NC(=O)Cc5ccc(C(F)(F)F)cc5)cc4)c3cc2OC)C1 (centres unmarked) [Example 42, N-(4-(6-methoxy-7-((1-(2-methoxyethyl)piperidin-3-yl)methoxy)quinazolin-4-yl)phenyl)-2-(4-(trifluoromethyl)phenyl)acetamide] | ≤ 200 | ≤ 200 | – | –
COc1cc2c(-c3ccc(NC(=O)Cc4ccc(C(F)(F)F)cc4)cc3)ncnc2cc1OCCCN1CCC(C)CC1 [Example 44, N-(4-(6-methoxy-7-(3-(4-methylpiperidin-1-yl)propoxy)quinazolin-4-yl)phenyl)-2-(4-(trifluoromethyl)phenyl)acetamide] | ≤ 200 | ≤ 200 | – | –
COc1cc2c(-c3ccc(NC(=O)Cc4cccc(C(F)(F)F)c4)cc3)ncnc2cc1OCCCN1CCN(C)CC1 [Example 55, N-(4-(6-methoxy-7-(3-(4-methylpiperazin-1-yl)propoxy)quinazolin-4-yl)phenyl)-2-(3-(trifluoromethyl)phenyl)acetamide] | ≤ 200 | ≤ 200 | – | –
COc1cc2c(-c3ccc(NC(=O)Cc4cccc(C(F)(F)F)c4)cc3)ncnc2cc1OCC1CCNCC1 [Example 60, N-(4-(6-methoxy-7-(piperidin-4-ylmethoxy)quinazolin-4-yl)phenyl)-2-(3-(trifluoromethyl)phenyl)acetamide] | 200 to 500 | ≤ 200 | – | –
COc1cc2c(-c3ccc(NC(=O)CCc4ccccc4)cc3)ncnc2cc1OCC1CCNCC1 [Example 71, N-(4-(6-methoxy-7-(piperidin-4-ylmethoxy)quinazolin-4-yl)phenyl)-3-phenylpropanamide] | 200 to 500 | ≤ 200 | – | –
COc1cc2c(-c3ccc(NC(=O)Cc4ccc(C(F)(F)F)cc4)cc3)ncnc2cc1OC[C@@H]1CCCNC1 [Example 73, (R)-N-(4-(6-methoxy-7-(piperidin-3-ylmethoxy)quinazolin-4-yl)phenyl)-2-(4-(trifluoromethyl)phenyl)acetamide] | ≤ 200 | ≤ 200 | – | –
COc1cc2c(-c3ccc(NC(=O)Cc4ccc(Cl)c(C(F)(F)F)c4)cc3)ncnc2cc1OCC1CCNCC1 [Example 77, 2-(4-chloro-3-(trifluoromethyl)phenyl)-N-(4-(6-methoxy-7-(piperidin-4-ylmethoxy)quinazolin-4-yl)phenyl)acetamide] | 200 to 500 | ≤ 200 | – | –

Results, then the compound that gave them:

GI50 (c-KIT V560G/D816V; [1]) [nM] | GI50 (Ba/F3-c-KIT(D816V); [2]) [nM] | GI50 (c-KIT V560G/D816V; c-KIT V560G/D816V cells) [nM] | GI50 (Ba/F3-c-KIT(D816V); read-out: Ba/F3 (nM) c-KIT (D816V) (GI50 class)) [nM] | Compound
≤ 200 | ≤ 200 | – | – | CCN1CCC(COc2cc3ncnc(-c4ccc(NC(=O)Cc5ccc(Cl)c(C(F)(F)F)c5)cc4)c3cc2OC)CC1 [Example 78, 2-(4-chloro-3-(trifluoromethyl)phenyl)-N-(4-(7-((1-ethylpiperidin-4-yl)methoxy)-6-methoxyquinazolin-4-yl)phenyl)acetamide]
≤ 200 | ≤ 200 | – | – | CCN1CCC(COc2cc3ncnc(-c4ccc(NC(=O)Cc5ccc(C(F)(F)F)c(F)c5)cc4)c3cc2OC)CC1 [Example 80, N-(4-(7-((1-ethylpiperidin-4-yl)methoxy)-6-methoxyquinazolin-4-yl)phenyl)-2-(3-fluoro-4-(trifluoromethyl)phenyl)acetamide]
≤ 200 | ≤ 200 | – | – | CCN1CCC(Oc2cc3c(-c4ccc(NC(=O)Cc5ccc(C(F)(F)F)cc5)cc4)ncnc3cc2OC)CC1 [Example 123, N-(4-(6-((1-ethylpiperidin-4-yl)oxy)-7-methoxyquinazolin-4-yl)phenyl)-2-(4-(trifluoromethyl)phenyl)acetamide]
200 to 500 | ≤ 200 | – | – | COc1cc2ncnc(-c3ccc(NC(=O)Cc4ccc(C(F)(F)F)cc4)cc3)c2cc1OCCCN1CCN(C2CC2)CC1 [Example 127, N-(4-(6-(3-(4-cyclopropylpiperazin-1-yl)propoxy)-7-methoxyquinazolin-4-yl)phenyl)-2-(4-(trifluoromethyl)phenyl)acetamide]
> 500 | ≤ 200 | – | – | COc1cc2ncnc(-c3ccc(NC(=O)Cc4ccc(C(F)(F)F)cc4)cc3)c2cc1OC1CCNC1 (centres unmarked) [Example 139, N-(4-(7-methoxy-6-(pyrrolidin-3-yloxy)quinazolin-4-yl)phenyl)-2-(4-(trifluoromethyl)phenyl)acetamide]
≤ 200 | ≤ 200 | – | – | COc1cc2c(-c3ccc(NC(=O)Cc4ccc(C(F)(F)F)cc4)cc3)ncnc2cc1OCCCN1CCN(C(C)=O)CC1 [Example 141, N-(4-(7-(3-(4-acetylpiperazin-1-yl)propoxy)-6-methoxyquinazolin-4-yl)phenyl)-2-(4-(trifluoromethyl)phenyl)acetamide]
≤ 200 | ≤ 200 | – | – | COc1cc2c(-c3ccc(NC(=O)Cc4ccc(C(F)(F)F)cc4)cc3)ncnc2cc1OCCCN1CCN(C)C(=O)C1 [Example 143, N-(4-(6-methoxy-7-(3-(4-methyl-3-oxopiperazin-1-yl)propoxy)quinazolin-4-yl)phenyl)-2-(4-(trifluoromethyl)phenyl)acetamide]
200 to 500 | ≤ 200 | – | – | COc1cc2ncnc(-c3ccc(NC(=O)Cc4ccc(C(F)(F)F)cc4)cc3)c2cc1O[C@H]1CCCO1 [Example 156, (S)-N-(4-(7-methoxy-6-((tetrahydrofuran-2-yl)oxy)quinazolin-4-yl)phenyl)-2-(4-(trifluoromethyl)phenyl)acetamide]
200 to 500 | ≤ 200 | – | – | COc1cc2ncnc(-c3ccc(NC(=O)Cc4ccc(C(F)(F)F)cc4)cc3)c2cc1OCCCN1C[C@H]2C[C@@H]1CN2C [Example 159, N-(4-(7-methoxy-6-(3-((1R,4R)-5-methyl-2,5-diazabicyclo[2.2.1]heptane-2-yl)propoxy)quinazolin-4-yl)phenyl)-2-(4-(trifluoromethyl)phenyl)acetamide]
≤ 200 | ≤ 200 | – | – | COc1cc2ncnc(-c3ccc(NC(=O)Cc4ccc(C(F)(F)F)cc4)cc3)c2cc1OCCCN1CCCC1 [Example 160, N-(4-(7-methoxy-6-(3-(pyrrolidin-1-yl)propoxy)quinazolin-4-yl)phenyl)-2-(4-(trifluoromethyl)phenyl)acetamide]
– | – | > 500 | ≤ 200 | N-(4-(7-methoxy-6-(pyridin-3-ylmethoxy)quinazolin-4-yl)phenyl)-2-(4-trifluoromethyl)phenyl)acetamide [Example 157]
